The record followed here is PubChem BioAssay (NCI).

Each structure is given as a SMILES string. “And” between values parts separate entries of the source, which are not always exact repeats. Equal entries are not always repeated.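 Protocol summary: plate cells (96-well), add compound at 5 concentrations, incubate 48 h, interpolate endpoints linearly. GI50 is the concentration that inhibits growth by half. At the TGI there is no net growth.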

Test systems include A549 NSCLC; HCC-2998 colon; HL-60(TB) leukemia; HOP-62 NSCLC; HT29 colon; MDA-MB-435; SK-MEL-5 melanoma; SN12C renal; TK-10 renal; UO-31 renal.
Common to all, as to assay: DTP human tumour cell line panel, 48 h

As a reminder, the GI50 is the concentration that inhibits growth by half. Broadly, the TGI is the concentration giving total growth inhibition. Turning to `O=c1[nH]ccc2nc(N3CCC(O)CC3)nc(Nc3cccc(C(F)(F)F)c3)c12`, the GI50 is 3.83 µM in the test with A549 NSCLC; 11.2 µM in the test on HCC-2998 colon; 0.863 µM with HL-60(TB) leukemia; 4.4 µM in the test on HOP-62 NSCLC; 3.88 µM with HT29 colon; 1.29 µM in the test on MDA-MB-435. Besides, the GI50 with SK-MEL-5 melanoma is 1.23 µM; with SN12C renal it was 4.07 µM; with TK-10 renal, 5.98 µM; with UO-31 renal, 0.785 µM. The TGI in the test with A549 NSCLC was > 100 µM; with HCC-2998 colon it was 38.4 µM; with HL-60(TB) leukemia it was 5.06 µM; with HOP-62 NSCLC, 18.8 µM; in the test with HT29 colon, 96.3 µM; with MDA-MB-435 it was 3.55 µM. Moreover, the TGI in the test with SK-MEL-5 melanoma is 2.5 µM; in the test with SN12C renal, > 100 µM; in the test with TK-10 renal, 44.9 µM; in the test with UO-31 renal it was 23 µM.

Regarding `C[C@@H]1N=C(c2ccc(Br)cc2)Nc2nc3ccccn3c2C1=O`, the GI50 was 6.7 µM in the test on A549 NSCLC; 21.9 µM with HCC-2998 colon; 6.49 µM with HL-60(TB) leukemia; 5.75 µM with HOP-62 NSCLC; 3.73 µM in the test on HT29 colon; 1.33 µM with MDA-MB-435. The GI50 in the test with SK-MEL-5 melanoma is 2.24 µM; with SN12C renal, 17.6 µM; in the test with TK-10 renal it was 21 µM; with UO-31 renal, 8.11 µM. For the same molecule, the TGI in the test on A549 NSCLC is > 100 µM; with HCC-2998 colon, > 100 µM; in the test on HL-60(TB) leukemia, > 100 µM; in the test on HOP-62 NSCLC, > 100 µM; in the test with HT29 colon, > 100 µM; in the test on MDA-MB-435, 7.1 µM. Moreover, the TGI with SK-MEL-5 melanoma was 40.5 µM; in the test with SN12C renal, > 100 µM; in the test with TK-10 renal, > 100 µM; in the test with UO-31 renal, > 100 µM.

With `c1cc(OCCN2CCCCC2)ccc1CNc1ccc2nc(CCC3CCCCC3)[nH]c2c1`, the GI50 is 2.54 µM in the test on A549 NSCLC; 2.05 µM in the test on HCC-2998 colon; 1.79 µM in the test with HL-60(TB) leukemia; 1.79 µM in the test on HOP-62 NSCLC; 0.907 µM in the test with HT29 colon; 1.63 µM with MDA-MB-435. Besides, the GI50 with SK-MEL-5 melanoma is 1.63 µM; with SN12C renal, 1.52 µM; in the test with TK-10 renal, 2.9 µM; in the test on UO-31 renal, 1.49 µM. In addition, the TGI in the test with A549 NSCLC came out at 7.06 µM; with HCC-2998 colon it was 4.28 µM; with HL-60(TB) leukemia it was 3.78 µM; with HOP-62 NSCLC it was 3.4 µM; with HT29 colon, 3.7 µM; with MDA-MB-435, 3.09 µM. In addition, the TGI with SK-MEL-5 melanoma worked out at 3.01 µM; in the test with SN12C renal it was 3.33 µM; with TK-10 renal it was 8.26 µM; in the test on UO-31 renal it was 2.85 µM.

For the molecule `COc1cc2cc(C(=O)Nc3cc(N)c4ccccc4c3CCCl)[nH]c2c(OC)c1OC`, the GI50 is 0.116 µM in the test on A549 NSCLC; 0.00922 µM with HCC-2998 colon; 0.0361 µM in the test with HL-60(TB) leukemia; 0.0244 µM with HOP-62 NSCLC; 0.0438 µM in the test with HT29 colon; 0.0483 µM in the test with MDA-MB-435. In addition, the 50% growth inhibitory concentration (GI50) with SK-MEL-5 melanoma is 0.0688 µM; in the test on SN12C renal, 0.0548 µM; in the test on TK-10 renal it was 0.0932 µM; with UO-31 renal, 0.0353 µM. For the same molecule, the TGI with A549 NSCLC is > 50 µM; in the test with HCC-2998 colon, 0.034 µM; in the test on HL-60(TB) leukemia, 0.237 µM; in the test with HOP-62 NSCLC, 0.165 µM; in the test with HT29 colon, 12.7 µM; in the test with MDA-MB-435, 0.159 µM. For the same molecule, the TGI in the test with SK-MEL-5 melanoma came out at 0.195 µM; with SN12C renal, 0.611 µM; in the test with TK-10 renal it was 6.36 µM; in the test with UO-31 renal it was 41.2 µM.

Regarding `Cn1nc(-c2ccccc2)nc1[N+](=O)[O-]`, the TGI in the test on A549 NSCLC, with HCC-2998 colon, with HL-60(TB) leukemia, with HOP-62 NSCLC, in the test with HT29 colon and in the test with MDA-MB-435 was > 10 µM in each case. For the same molecule, the TGI with SK-MEL-5 melanoma, with SN12C renal, with TK-10 renal and in the test with UO-31 renal was > 10 µM each time.

For the molecule `Nc1cc(-c2cccc(OC(F)(F)F)c2)nc2ccc(N3CCCC3)cc12`, the GI50 with A549 NSCLC was 0.137 µM and 0.0852 µM and 0.0836 µM; in the test on HCC-2998 colon, 0.037 µM and 0.0351 µM and 0.0371 µM; in the test on HL-60(TB) leukemia, 0.0303 µM and 0.0249 µM and 0.0248 µM; in the test on HOP-62 NSCLC, 0.0463 µM and 0.0508 µM and 0.0489 µM; with HT29 colon it was 0.0355 µM and 0.0338 µM and 0.0354 µM; with MDA-MB-435, < 0.0105 µM. For the same molecule, the GI50 was 0.042 µM and 0.0394 µM and 0.0348 µM in the test on SK-MEL-5 melanoma; 0.113 µM and 0.0716 µM and 0.0692 µM in the test with SN12C renal; 9.57 µM and 13 µM and > 23.5 µM with TK-10 renal; 0.119 µM and 0.15 µM and 0.0758 µM with UO-31 renal. In addition, the TGI with A549 NSCLC is 18.6 µM and > 100 µM; in the test with HL-60(TB) leukemia, 0.0888 µM and 0.0712 µM and 0.32 µM; in the test with HOP-62 NSCLC it was 22 µM and > 100 µM; in the test with MDA-MB-435, 0.0455 µM and 0.0346 µM and 0.034 µM; in the test with SK-MEL-5 melanoma, 0.621 µM and 0.67 µM and 0.361 µM; with SN12C renal, 19.7 µM and > 100 µM. For the same molecule, the TGI with TK-10 renal was 34.6 µM and > 100 µM; in the test with UO-31 renal, 17.7 µM and > 100 µM.

As to `CC1(C)CC(n2cnc(-c3ccc(F)cc3)c2-c2ccnc(N)n2)CC(C)(C)N1`, the GI50 in the test on A549 NSCLC was 12.5 µM; with HCC-2998 colon, > 25 µM; in the test on HL-60(TB) leukemia, > 25 µM; in the test on HOP-62 NSCLC it was > 16.8 µM; in the test with HT29 colon, 11.1 µM; in the test with MDA-MB-435, > 25 µM. The GI50 in the test with SK-MEL-5 melanoma was > 16.2 µM; in the test with SN12C renal it was 17.9 µM; with TK-10 renal it was 16.1 µM; in the test with UO-31 renal, 16.6 µM. The TGI in the test with A549 NSCLC, with HCC-2998 colon, with HL-60(TB) leukemia, in the test with HOP-62 NSCLC, in the test with HT29 colon and in the test on MDA-MB-435 was > 25 µM in each case. Moreover, the TGI with SK-MEL-5 melanoma, in the test with SN12C renal, in the test with TK-10 renal and in the test with UO-31 renal was > 25 µM each time.

Regarding `c1ccc2c(c1)-c1ccccc1C2N1CC2CCC(CC2)C1`, the TGI in the test on A549 NSCLC was > 100 µM; in the test with HCC-2998 colon it was 31.4 µM; in the test on HL-60(TB) leukemia, 11.2 µM; in the test on HOP-62 NSCLC, 62 µM; with HT29 colon, 37.6 µM; in the test with MDA-MB-435, 73.4 µM. Besides, the TGI with SK-MEL-5 melanoma was 32.6 µM; in the test on SN12C renal, 55.6 µM; in the test on TK-10 renal it was > 100 µM; with UO-31 renal, 94.6 µM.
